Earlier results, collected in patent publication US6613244B2, “Ironing aid composition” (Unilever Home & Personal Care USA, division of Conopco, Inc., priority 2000, dated 2003).

Settings: stated in words, related to ClogP

Compound: CC(=O)OC(c1ccccc1)C(Cl)(Cl)Cl (stereo not shown) [rose acetate]
- solubility in water: not easily soluble in water
